The test system of one experiment is E. coli. It is filed as cell-based. The source says: Further evidence for the influence of bioavailable copper on the IC50 of DB4-51 was obtained by using a checkerboard assay. […] Serial dilutions of DB4-51 in LB were arrayed against dilutions of chelator (BCS and EDTA). The antagonism exists between our prochelator, DB4-51, and the strong, extracellular chelators BCS and EDTA. […] However, at lower concentrations, EDTA works antagonistically with DB4-51 by restoring bacterial growth. This trend further underscores the influence that copper and potentially other metals have on the growth inhibitory activity of DB4-51.

The subject of the next experiment is several strains. The following applies: concentrations below 1 mM. The source says:
[39, 40] […] To control for the impact of copper alone, the cultures of 5 bacterial strains were subjected to a serial dilution of CuCl2. […] [41] To control for the impact of limited Cu, several strains were also challenged with a serial dilution of BCS.

For the compound `Cc1cc(-c2ccc(S(=O)(=O)O)cc2)c2ccc3c(-c4ccc(S(=O)(=O)O)cc4)cc(C)nc3c2n1` [BCS, bathocuproine disulfonate], the “concentration that restored E. coli growth” value with E. coli (at 52 μM DB4-51) is ≥ 125 µM. The “effect on bacterial growth” value in the experiment on several strains is “did not inhibit bacterial growth”.
Regarding `O=C(O)CN(CCN(CC(=O)O)CC(=O)O)CC(=O)O` [EDTA, Ethylenediaminetetraacetic acid], the “effect on bacterial growth” value with E. coli (high concentrations (>125 μM)) was “some inhibition of bacterial growth”.
